According to patent US11351129B2, “Systems and methods for treating vitiligo” (Transdermal Biotechnology, Inc., priority 2016, dated 2022):

Test system: vitiligo depigmented area of skin
Assay: Two month study of topically applied sodium pyruvate in subjects with vitiligo (photographs, DSMII Colorimeter erythema and melanin, clinical evaluations)
Type: in vivo, human
Conditions: for average erythema colorimetric measurement: DSMII Colorimeter, 0.2% phase
Description: Subjects were 18 years of age and older. A medical history form and this consent statement were provided to them to read, review, and complete. They had no other systemic or dermatological disease present that would interfere with the integrity of this study. Subjects were in good health as determined by the medical history. After all their questions were answered and they decided to participate in the study they were asked to sign the informed consent statement. 5 subjects were studied as follows:
Subjects were dispensed two (2) tubes of test products. One was labeled HNC 180-100-A (0.05%) and the other labeled as HNC 180-100-B (0.1%). Subjects were instructed to use these products sparingly and make applications twice daily, morning, and evening. Applications were made only to the areas designated for treatment.
The sodium pyruvate dosage was increased to 0.2% after the initial eight week study was completed. Subjects were dispensed HNC-180-12 for this phase.
This was a two (2) month study that involved five (5) subjects. Test sessions lasted approximately ½ hour per visit. There were […] scheduled visits. The first was on Day 1 (Baseline), and then at 1, 2, 4, 6 and 8 weeks.
At the end of the 8 weeks all subjects were invited to continue for further study. Four of the subjects elected to continue.
Prior to any study procedures being performed subjects were given an informed consent statement to read, review, and sign. A body map assessment of the vitiligo depigmented area was made and the target areas of treatment were photographed for the baseline record. Colorimetric measurements of the skin were done employing a DSMII Colorimeter. This instrument produced a read-out of erythema and melanin based on the light absorption characteristics of human skin. Subjects reported to the clinic for additional photographs, colorimeter measurements, and clinical evaluations at each scheduled visit.

Question: Which results are given for `CC(=O)C(=O)[O-].[Na+]` [sodium pyruvate]?
Answer: increase in pigment in vitiliginous areas, subjects showing it (5 subjects with vitiligo, topical, twice daily, 0.05% and 0.1% for 8 weeks, then 0.2%): 4 out of the 5; irritation (concentration of sodium pyruvate increased to 0.2% after 8 weeks, topical): increased irritation; appearance of vitiligo (topically applied): effective in reducing the appearance of vitiligo; average erythema colorimetric measurement (week 12): 15.80 arbitrary units; average erythema colorimetric measurement (week 16): 15.71 arbitrary units
